Test results from paper PMC7238409, “Interactions of TiO2 Nanoparticles with Ingredients from Modern Lifestyle Products and Their Effects on Human Skin Cells” (Chemical Research in Toxicology, 2020).
Read-outs that look alike come from different tables or passages of the source.

How the values were obtained:
nNHDF cells [1] = assay: Neutral Red Uptake (NRU) assay, lysosomal integrity; assay type: cell-based, human; settings: 24 h, absence of TiO2 NPs (control)
nNHDF cells [2] = assay: Annexin V/Propidiumiodide apoptosis/necrosis assay, flow cytometry; assay type: cell-based, human
[3] = Nanoparticle tracking analysis (NTA) of TiO2 NPs after incubation with MLP ingredients; assay type: physicochemical; settings: 0.1 mg/mL TiO2 NPs + 0.1 mg/mL MLP ingredient, 60 min, diluted 1:100 in water
nNHDF cells [4] = assay: Glutathione assay (total glutathione and GSSG, Tietze method); assay type: cell-based, human; settings: 4 h, concentrations of Table 1, absence of TiO2 NPs
Description: Intracellular total and oxidized glutathione was determined by the earlier published Tietze method,[33] which was adapted to microtiter plates. Briefly, cells were lysed in 200 μL of 1% (w/v) sulfosalicylic acid (SSA), and 10 μL of the lysates were diluted with 90 μL of H2O and subsequently mixed with 100 μL of a reaction mixture containing 0.3 mM DTNB, 0.4 mM NADPH, 1 mM EDTA, and 1 U/mL glutathione reductase in 0.1 mM sodium phosphate buffer, pH = 7.5. The absorbance at 405 nm was continuously recorded over a time frame of 10 min. Glutathione concentrations were determined by comparing the increase in absorption of samples with the increase in absorption of standards with known concentrations. In order to determine the amount of oxidized glutathione (glutathione disulfide, GSSG), the samples were pretreated with 2-vinylpyridine (2-VP). The sample (cell lysate in SSA, 130 μL) was mixed with 5 μL of 2-VP, and the pH was subsequently adjusted to 6 using 0.2 M Tris-solution. Samples were incubated at room temperature for 60 min, and then 10 μL of the samples were assayed for glutathione, as described above.
Cellular protein contents were determined after lysis of the cells in 200 μL of 0.5 M NaOH according to the Lowry method[34] using bovine serum albumin as a standard.

nNHDF cells [5] = assay: Reactive oxygen species assay (DCFDA) with side scatter signal (SSC), flow cytometry; settings: concentrations of Table 1, with or without 100 μg/mL TiO2 NPs; H2O2 100 μM
nNHDF cells [6] = assay: CellTiter-Blue (CTB) assay, metabolic activity; settings: 24 h
[7] = read-out: EC50, metabolic activity, control, nNHDF cells, absence of TiO2 NPs (control)

Row | SMILES | # of particles (TiO2 NPs detectable) [3] | particle diameter of TiO2 NPs, D50 [3] | particle diameter of TiO2 NPs, mean [3] | particle diameter of TiO2 NPs, mode [3] | EC50 (nNHDF cells [1]) | quadrant number lower left (viable cells), PI / Annexin V plot (nNHDF cells [2]) | quadrant number lower right, PI / Annexin V plot (nNHDF cells [2]) | quadrant number upper left, PI / Annexin V plot (nNHDF cells [2]) | quadrant number upper right, PI / Annexin V plot (nNHDF cells [2]) | DCFDA signal (ROS) (nNHDF cells [5]) | also measured
1 | CCCCOC(=O)c1ccc(O)cc1 [BP, butyl parabene] | 748 ± 137 × 10^6 | 122 ± 12 nm | 136 ± 18 nm | 111 ± 19 nm | 690 ± 420 µM | 92.9 | 3.13 | 2.57 | 1.38 |  | amount of viable cells (nNHDF cells [2]): 79.8%
2 | OO [H2O2, Hydrogen peroxide, reference compound] |  |  |  |  |  |  |  |  |  | slight but significant increase in the DCFDA signal | total cellular glutathione content (nNHDF cells [4]): lowered significantly
3 | O=C1C=C(O)C(=O)c2ccccc21 [HNQ, 2-hydroxy-1,4-naphtoquinone] | 498 ± 380 × 10^6 | 141 ± 20 nm | 154 ± 14 nm | 117 ± 18 nm |  | 89.5 | 4.56 | 3.31 | 2.61 | decreased the amount of detectable ROS significantly | 
4 | CC(C=O)Cc1ccc(C(C)(C)C)cc1 (stereo not shown) [Lilial, 3-(4-tert-butylphenyl)-2-methylpropanal] | 552 ± 248 × 10^6 | 127 ± 6 nm | 136 ± 5 nm | 117 ± 11 nm |  |  |  |  |  |  | EC50 (nNHDF cells [1]; Homo sapiens): 270 ± 70 µM; quadrant number lower left (viable cells), PI / Annexin V plot (nNHDF cells [2]; human, 24 h): 94.2; quadrant number lower right, PI / Annexin V plot (nNHDF cells [2]; human, 24 h): 1.60; quadrant number upper left, PI / Annexin V plot (nNHDF cells [2]; human, 24 h): 3.26; quadrant number upper right, PI / Annexin V plot (nNHDF cells [2]; human, 24 h): 0.94; EC50 (nNHDF cells [6]; Homo sapiens, read-out: EC50, metabolic activity, control): 230 ± 50 µM
5 | Nc1ccc(N)cc1 [PPD, para-phenylenediamine] | 1833 ± 93 × 10^6 | 129 ± 17 nm | 138 ± 19 nm | 122 ± 14 nm | 1360 ± 50 µM |  |  |  |  | decreased the amount of detectable ROS significantly | PI fluorescence (necrosis) compared to the control (nNHDF cells [2]; 24 h, concentrations of Table 1, together with 100 μg/mL TiO2 NPs): significant difference in PI fluorescence; EC50 (nNHDF cells [6]; read-out: EC50 (cytotoxicity, end point not given), nNHDF cells, discussion): ~1000 µM; EC50 (nNHDF cells [6]; [7]): 1190 ± 170 µM

Further lines, with some results ahead:

Row | # of particles (TiO2 NPs detectable) [3] | particle diameter of TiO2 NPs, D50 [3] | particle diameter of TiO2 NPs, mean [3] | particle diameter of TiO2 NPs, mode [3] | SMILES | EC50 (nNHDF cells [1]) | quadrant number lower left (viable cells), PI / Annexin V plot (nNHDF cells [2]) | quadrant number lower right, PI / Annexin V plot (nNHDF cells [2]) | quadrant number upper left, PI / Annexin V plot (nNHDF cells [2]) | quadrant number upper right, PI / Annexin V plot (nNHDF cells [2]) | DCFDA signal (ROS) (nNHDF cells [5]) | also measured
6 | 764 ± 92 × 10^6 | 122 ± 2 nm | 132 ± 5 nm | 105 ± 8 nm | CCOC(=O)c1ccc(O)cc1 [EP, ethyl parabene] | 3540 ± 860 µM | 90.0 | 6.57 | 1.97 | 1.47 |  | 
7 | 927 ± 146 × 10^6 | 122 ± 1 nm | 131 ± 2 nm | 106 ± 5 nm | COC(=O)c1ccc(O)cc1 [MP, methyl parabene] |  |  | 6.31 | 2.69 | 1.42 |  | 
8 | 612 ± 210 × 10^6 | 119 ± 2 nm | 126 ± 1 nm | 103 ± 5 nm | CCCOC(=O)c1ccc(O)cc1 [PP, propyl parabene] | 1270 ± 340 µM | 91.2 | 4.55 | 2.46 | 1.77 |  | total cellular glutathione content (nNHDF cells [4]): significantly lower total cellular glutathione content; EC50 (nNHDF cells [6]; [7]): 1040 ± 20 µM
